Measurements from paper PMC9007901 (European journal of medicinal chemistry, 2022).

Columns and labels:
[1] = molecular target: T1, hHDAC8 (Homo sapiens, UniProt Q9BY41); assay: HDAC8 activity assay; assay type: biochemical
T1 sequence (Q9BY41 1-377): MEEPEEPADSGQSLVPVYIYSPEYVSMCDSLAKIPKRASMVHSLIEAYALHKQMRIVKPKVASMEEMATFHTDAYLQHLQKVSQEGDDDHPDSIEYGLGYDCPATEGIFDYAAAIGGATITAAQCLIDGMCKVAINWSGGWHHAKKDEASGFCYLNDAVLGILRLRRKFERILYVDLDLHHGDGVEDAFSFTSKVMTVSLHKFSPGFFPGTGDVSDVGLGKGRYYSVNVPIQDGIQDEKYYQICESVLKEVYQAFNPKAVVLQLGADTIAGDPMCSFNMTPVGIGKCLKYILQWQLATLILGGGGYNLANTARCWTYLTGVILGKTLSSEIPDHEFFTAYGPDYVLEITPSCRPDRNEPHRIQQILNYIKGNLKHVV

[2] = molecular target: T2, drHDAC10 (Danio rerio, UniProt F1QCV2); assay: drHDAC10 enzymatic in vitro assay; assay type: biochemical
T2 sequence (F1QCV2 1-675): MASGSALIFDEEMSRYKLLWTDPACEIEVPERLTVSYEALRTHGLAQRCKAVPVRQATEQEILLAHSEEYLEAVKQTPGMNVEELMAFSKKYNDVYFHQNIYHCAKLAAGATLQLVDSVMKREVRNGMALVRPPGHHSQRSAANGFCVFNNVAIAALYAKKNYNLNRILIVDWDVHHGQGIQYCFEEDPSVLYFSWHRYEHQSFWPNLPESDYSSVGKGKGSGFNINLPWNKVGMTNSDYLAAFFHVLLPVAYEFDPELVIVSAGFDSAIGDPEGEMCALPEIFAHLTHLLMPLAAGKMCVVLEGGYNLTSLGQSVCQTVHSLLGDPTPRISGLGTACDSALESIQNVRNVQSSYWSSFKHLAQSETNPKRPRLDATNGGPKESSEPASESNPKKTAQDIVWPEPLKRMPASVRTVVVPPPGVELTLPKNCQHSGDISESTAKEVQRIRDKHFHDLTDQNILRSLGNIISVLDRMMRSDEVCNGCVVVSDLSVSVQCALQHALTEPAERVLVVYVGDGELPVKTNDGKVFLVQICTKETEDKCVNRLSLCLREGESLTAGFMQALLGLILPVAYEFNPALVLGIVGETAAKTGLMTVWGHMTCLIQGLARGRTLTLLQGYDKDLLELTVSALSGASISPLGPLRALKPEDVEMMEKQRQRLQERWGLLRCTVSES

[3] = molecular target: hHDAC1 (Homo sapiens, UniProt Q13547); assay: recombinant HDAC1 homogenous fluorescence assay
[4] = system: SK-N-BE(2)-C neuroblastoma cells; assay: LysoTracker assay; assay type: cell-based, Human; conditions: SK-N-BE(2)-C cells, 24 h
[5] = system: MV4–11 cells; assay: Cyto-ID detection of modulation of autophagy; assay type: cell-based; conditions: 2–15 μM, 24 h, with 10 μM chloroquine
[6] = system: HDAC10 and GAPDH levels in MV4–11 cells; assay: Immunoblot for HDAC10 and GAPDH levels; assay type: cell-based; conditions: 24 h
[7] = system: acetylated histone H3 in MV4–11 cells; assay: Immunoblot for acetylated histone H3; assay type: cell-based; conditions: 24 h
[8] = system: MV4–11 cells; assay: Annexin-V-FITC / PI flow cytometry; assay type: cell-based; conditions: 2–15 μM, 24 h
[9] = system: acetylated tubulin-α in MV4–11 cells; assay: Immunoblot for acetylated tubulin-α; assay type: cell-based; conditions: 15 μM, 24 h, did not reach significance
[10] = molecular target: T3, hHDAC6 (Homo sapiens, UniProt Q9UBN7); assay: recombinant HDAC6 homogenous fluorescence assay
T3 sequence (Q9UBN7 1-1215): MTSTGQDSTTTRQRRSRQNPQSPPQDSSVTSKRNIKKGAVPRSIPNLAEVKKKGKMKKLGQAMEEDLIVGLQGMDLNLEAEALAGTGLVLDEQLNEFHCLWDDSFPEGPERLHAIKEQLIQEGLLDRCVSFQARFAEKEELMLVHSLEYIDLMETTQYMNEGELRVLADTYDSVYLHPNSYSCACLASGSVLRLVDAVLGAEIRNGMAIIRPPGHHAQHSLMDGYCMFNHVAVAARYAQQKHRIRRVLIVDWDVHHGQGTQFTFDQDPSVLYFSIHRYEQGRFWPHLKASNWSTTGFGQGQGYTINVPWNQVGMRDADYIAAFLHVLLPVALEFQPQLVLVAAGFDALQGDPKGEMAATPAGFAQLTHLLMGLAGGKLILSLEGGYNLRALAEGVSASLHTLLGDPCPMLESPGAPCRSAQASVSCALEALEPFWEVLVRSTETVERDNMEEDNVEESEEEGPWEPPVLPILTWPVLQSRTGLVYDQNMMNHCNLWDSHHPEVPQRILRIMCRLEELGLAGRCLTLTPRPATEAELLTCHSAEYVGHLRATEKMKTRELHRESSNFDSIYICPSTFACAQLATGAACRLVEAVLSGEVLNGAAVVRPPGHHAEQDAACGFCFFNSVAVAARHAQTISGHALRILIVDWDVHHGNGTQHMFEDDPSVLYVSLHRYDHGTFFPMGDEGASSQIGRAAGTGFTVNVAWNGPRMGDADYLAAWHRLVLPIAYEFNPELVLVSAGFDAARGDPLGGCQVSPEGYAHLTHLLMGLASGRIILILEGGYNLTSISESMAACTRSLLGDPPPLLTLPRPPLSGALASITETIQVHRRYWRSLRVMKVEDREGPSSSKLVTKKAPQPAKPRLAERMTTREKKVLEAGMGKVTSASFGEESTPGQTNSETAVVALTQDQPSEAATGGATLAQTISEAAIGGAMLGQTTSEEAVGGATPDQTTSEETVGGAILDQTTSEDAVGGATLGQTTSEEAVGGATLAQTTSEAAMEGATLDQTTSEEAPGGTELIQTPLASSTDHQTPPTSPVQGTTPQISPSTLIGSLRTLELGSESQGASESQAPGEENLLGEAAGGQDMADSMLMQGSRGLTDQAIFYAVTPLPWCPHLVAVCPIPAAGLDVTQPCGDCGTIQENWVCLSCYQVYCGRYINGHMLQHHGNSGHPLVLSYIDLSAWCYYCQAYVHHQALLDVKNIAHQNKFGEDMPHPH

Sequence of hHDAC1 (Q13547 whole entry): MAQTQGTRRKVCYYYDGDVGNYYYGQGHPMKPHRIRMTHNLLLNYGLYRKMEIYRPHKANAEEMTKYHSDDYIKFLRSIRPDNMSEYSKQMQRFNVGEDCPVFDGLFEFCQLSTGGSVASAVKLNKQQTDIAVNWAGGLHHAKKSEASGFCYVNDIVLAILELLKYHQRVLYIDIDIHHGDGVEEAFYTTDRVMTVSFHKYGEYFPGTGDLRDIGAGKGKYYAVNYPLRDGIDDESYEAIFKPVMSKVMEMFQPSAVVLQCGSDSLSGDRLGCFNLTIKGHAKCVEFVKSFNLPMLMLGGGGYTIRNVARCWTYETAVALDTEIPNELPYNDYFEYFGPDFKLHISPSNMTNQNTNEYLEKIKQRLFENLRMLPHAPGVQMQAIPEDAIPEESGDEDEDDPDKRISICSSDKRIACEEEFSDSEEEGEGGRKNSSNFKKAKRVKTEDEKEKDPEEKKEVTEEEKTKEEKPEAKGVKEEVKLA

O=C(NO)c1ccc(CNCc2ccccc2)cc1 [4a, 4-[(benzylamino)methyl]-benzhydroxamic acid]
selectivity index (SI), hHDAC8 over drHDAC10 [1]: 94

O=C(/C=C/C1CCN(Cc2csc3ccccc23)CC1)NO [13a, (E)-3-{1-[benzothiophen-3-ylmethyl]piperidin-4-yl} acrylhydroxamic acid]
drHDAC10 inhibition (in words) [2]: Potent drHDAC10 inhibition

O=C(/C=C/C1CCN(Cc2cccc(Cl)c2)CC1)NO [10d, (E)-3-[1-(3-chlorobenzyl)piperidin-4-yl]acrylhydroxamic acid]
IC50 [1]: 2500 ± 260 nM

O=C(NO)c1ccc(CN2CCCCC2)cc1 [6a, 4-(piperidin-1-ylmethyl)benzhydroxamic acid]
drHDAC10 inhibition (in words) [2]: only weak HDAC10 inhibition

O=C(NO)c1ccc(CNCc2cccs2)cc1 [4b, 4-{[(thiophen-2-ylmethyl)amino]methyl}benzhydroxamic acid]
selectivity index (SI), hHDAC1 over drHDAC10 [3]: 85
selectivity index (SI), hHDAC8 over drHDAC10 [1]: 30

O=C(/C=C/C1CCN(Cc2cccc3ccccc23)CC1)NO [10c, (E)-3-[1-(naphthalen-1-ylmethyl)piperidin-4-yl]acrylhydroxamic acid]
expansion and acidification of the lysosomal compartment (LysoTracker DND-99) [4]: induced the expansion and acidification of the lysosomal compartment
drHDAC10 inhibition (in words) [2]: Potent drHDAC10 inhibition
accumulation of cyto-ID positive vesicles [5]: significantly induced the accumulation of cyto-ID positive vesicles
GAPDH levels [6]: no change of GAPDH levels
HDAC10 protein levels [6]: slightly increased levels of HDAC10
accumulation of acetylated histone H3 ([7]; 2–15 μM): did not induce a significant accumulation of acetylated histone H3
IC50 [1]: 470 ± 70 nM
apoptosis (annexin-V-FITC / PI) [8]: did not trigger apoptosis
tubulin acetylation compared to non-treated cells [9]: 36–80 fold

Nc1ccccc1NC(=O)c1ccc(CNC(=O)OCc2cccnc2)cc1 [Entinostat (MS-275), entinostat, reference compound]
accumulation of acetylated histone H3 ([7]; 5 μM, positive control): induced a highly significant accumulation of acetylated histone H3

O=C(NO)c1ccc(CNCc2ccsc2)cc1 [4c, 4-{[(thiophen-3-ylmethyl)amino]methyl}benzhydroxamic acid]
selectivity index (SI), hHDAC1 over drHDAC10 [3]: 417

Cn1cc(CN2CCC(/C=C/C(=O)NO)CC2)c2ccccc21 [13b, (E)-3-{1-[(1-methylindol-3-yl)methyl]piperidin-4-yl} acrylhydroxamic acid]
expansion and acidification of the lysosomal compartment (LysoTracker DND-99) [4]: induced the expansion and acidification of the lysosomal compartment
drHDAC10 inhibition (in words) [2]: Potent drHDAC10 inhibition
accumulation of cyto-ID positive vesicles [5]: significantly induced the accumulation of cyto-ID positive vesicles
GAPDH levels [6]: no change of GAPDH levels
HDAC10 protein levels [6]: slightly increased levels of HDAC10
accumulation of acetylated histone H3 ([7]; 2–15 μM): did not induce a significant accumulation of acetylated histone H3
apoptosis (annexin-V-FITC / PI) [8]: did not trigger apoptosis
tubulin acetylation compared to non-treated cells [9]: 36–80 fold

O=C(/C=C/C1CCN(CCc2c[nH]c3ccccc23)CC1)NO [10b, (E)-3-{1-[2-(1H-indol-3-yl)ethyl]piperidin-4-yl}acrylhydroxamic acid]
drHDAC10 inhibition (in words) [2]: Potent drHDAC10 inhibition
IC50 [1]: 420 ± 55 nM

O=C(/C=C/C1CCN(CCc2ccccc2)CC1)NO [10a, (E)-3-(1-phenethylpiperidin-4-yl)acrylhydroxamic acid]
selectivity index (SI), hHDAC1 over drHDAC10 [3]: 1454
selectivity index (SI), hHDAC6 over drHDAC10 [10]: 395
IC50 [1]: 250 ± 50 nM
selectivity index (SI), hHDAC8 over drHDAC10 [1]: 23

CN1CCN(Cc2ccc(C(=O)NO)cc2)CC1 [6b, 4-[(N-methylpiperazin-1-yl)methyl]benzhydroxamic acid]
selectivity index (SI), hHDAC6 over drHDAC10 [10]: 9
IC50 [1]: 2400 ± 210 nM
